Laboratory results reported in patent US8835472B2, “Compounds, pharmaceutical compositions and uses thereof” (Boehringer Ingelheim International GmbH, priority 2010, dated 2014).

Biological target: human ACC2 (Homo sapiens (Human), UniProt O00763)
Test: ACC2 assay, spectrophotometric 384 well assay (NADH-linked, coupled lactate dehydrogenase/pyruvate kinase reaction)
Assay type: biochemical
Conditions: hACC2 construct lacking the 128 N-terminal amino acids; 25° C., 340 nm over 15 minutes
Procedure: Spectrophotometric 384 Well Assay
Malonyl CoA formation by acetyl CoA carboxylases is stoichometrically linked to the consumption of ATP. ACC2 activity is measured in a NADH-linked kinetic method measuring ADP generated during the ACC reaction using a coupled lactate dehydrogenase/pyruvate kinase reaction.
For biological testing, a human ACC2 construct which lacks the 128 amino acids at the N-terminus for increased solubility (nt 385-6966 in Genbank entry AJ575592) is cloned. The protein is then expressed in insect cells using a baculoviral expression system. Protein purification is performed by anion exchange.
All compounds are dissolved in dimethyl sulfoxide (DMSO) to a concentration of 10 mM.
Assay reactions are then carried out in 384-well plates, with hACC2 in an appropriate dilution and at final assay concentrations (f.c.) of 100 mM Tris (pH 7.5), 10 mM trisodium citrate, 25 mM KHCO3, 10 mM MgCl2, 0.5 mg/mL BSA, 3.75 mM reduced L-glutathione, 15 U/mL lactate dehydrogenase, 0.5 mM phosphoenolpyruvate, 15 U/mL pyruvate kinase, compounds at different concentrations at final DMSO concentrations of 1%.
The enzymatic reaction is then started by addition of a mixture of NADH, acetyl Coenzyme A (both 200 μM f.c.) and ATP (500 uM f.c.). The decrease of the optical density (slope S) is then determined at 25° C. at a wavelength of 340 nm over 15 minutes in a spectrophotometric reader.
Each assay microtiter plate contains wells with vehicle instead of compound as controls for the non-inhibited enzyme (100% CTL; ‘HIGH’) and wells without acetyl-CoA as controls for non-specific NADH degradation (0% CTL; ‘LOW’).
The slope S is used for calculation of % CTL=(S(compound)−S(‘LOW’))/(S(‘HIGH’)−S(‘LOW’))*100. Compounds will give values between 100% CTL (no inhibition) and 0% CTL (complete inhibition).
For IC50 value determination, the sample slope in the presence of the test compound after subtraction of the low controls (S(compound)−S(‘LOW’)) are used. An IC50 value is derived from the compound slopes at different dosages after subtraction of the low controls (S(compound)−S(‘LOW’)) by non-linear regression curve fitting (equation y=(A+((B−A)/(1+((C/x)^D))))).

Chain of human ACC2 (O00763 129-2458): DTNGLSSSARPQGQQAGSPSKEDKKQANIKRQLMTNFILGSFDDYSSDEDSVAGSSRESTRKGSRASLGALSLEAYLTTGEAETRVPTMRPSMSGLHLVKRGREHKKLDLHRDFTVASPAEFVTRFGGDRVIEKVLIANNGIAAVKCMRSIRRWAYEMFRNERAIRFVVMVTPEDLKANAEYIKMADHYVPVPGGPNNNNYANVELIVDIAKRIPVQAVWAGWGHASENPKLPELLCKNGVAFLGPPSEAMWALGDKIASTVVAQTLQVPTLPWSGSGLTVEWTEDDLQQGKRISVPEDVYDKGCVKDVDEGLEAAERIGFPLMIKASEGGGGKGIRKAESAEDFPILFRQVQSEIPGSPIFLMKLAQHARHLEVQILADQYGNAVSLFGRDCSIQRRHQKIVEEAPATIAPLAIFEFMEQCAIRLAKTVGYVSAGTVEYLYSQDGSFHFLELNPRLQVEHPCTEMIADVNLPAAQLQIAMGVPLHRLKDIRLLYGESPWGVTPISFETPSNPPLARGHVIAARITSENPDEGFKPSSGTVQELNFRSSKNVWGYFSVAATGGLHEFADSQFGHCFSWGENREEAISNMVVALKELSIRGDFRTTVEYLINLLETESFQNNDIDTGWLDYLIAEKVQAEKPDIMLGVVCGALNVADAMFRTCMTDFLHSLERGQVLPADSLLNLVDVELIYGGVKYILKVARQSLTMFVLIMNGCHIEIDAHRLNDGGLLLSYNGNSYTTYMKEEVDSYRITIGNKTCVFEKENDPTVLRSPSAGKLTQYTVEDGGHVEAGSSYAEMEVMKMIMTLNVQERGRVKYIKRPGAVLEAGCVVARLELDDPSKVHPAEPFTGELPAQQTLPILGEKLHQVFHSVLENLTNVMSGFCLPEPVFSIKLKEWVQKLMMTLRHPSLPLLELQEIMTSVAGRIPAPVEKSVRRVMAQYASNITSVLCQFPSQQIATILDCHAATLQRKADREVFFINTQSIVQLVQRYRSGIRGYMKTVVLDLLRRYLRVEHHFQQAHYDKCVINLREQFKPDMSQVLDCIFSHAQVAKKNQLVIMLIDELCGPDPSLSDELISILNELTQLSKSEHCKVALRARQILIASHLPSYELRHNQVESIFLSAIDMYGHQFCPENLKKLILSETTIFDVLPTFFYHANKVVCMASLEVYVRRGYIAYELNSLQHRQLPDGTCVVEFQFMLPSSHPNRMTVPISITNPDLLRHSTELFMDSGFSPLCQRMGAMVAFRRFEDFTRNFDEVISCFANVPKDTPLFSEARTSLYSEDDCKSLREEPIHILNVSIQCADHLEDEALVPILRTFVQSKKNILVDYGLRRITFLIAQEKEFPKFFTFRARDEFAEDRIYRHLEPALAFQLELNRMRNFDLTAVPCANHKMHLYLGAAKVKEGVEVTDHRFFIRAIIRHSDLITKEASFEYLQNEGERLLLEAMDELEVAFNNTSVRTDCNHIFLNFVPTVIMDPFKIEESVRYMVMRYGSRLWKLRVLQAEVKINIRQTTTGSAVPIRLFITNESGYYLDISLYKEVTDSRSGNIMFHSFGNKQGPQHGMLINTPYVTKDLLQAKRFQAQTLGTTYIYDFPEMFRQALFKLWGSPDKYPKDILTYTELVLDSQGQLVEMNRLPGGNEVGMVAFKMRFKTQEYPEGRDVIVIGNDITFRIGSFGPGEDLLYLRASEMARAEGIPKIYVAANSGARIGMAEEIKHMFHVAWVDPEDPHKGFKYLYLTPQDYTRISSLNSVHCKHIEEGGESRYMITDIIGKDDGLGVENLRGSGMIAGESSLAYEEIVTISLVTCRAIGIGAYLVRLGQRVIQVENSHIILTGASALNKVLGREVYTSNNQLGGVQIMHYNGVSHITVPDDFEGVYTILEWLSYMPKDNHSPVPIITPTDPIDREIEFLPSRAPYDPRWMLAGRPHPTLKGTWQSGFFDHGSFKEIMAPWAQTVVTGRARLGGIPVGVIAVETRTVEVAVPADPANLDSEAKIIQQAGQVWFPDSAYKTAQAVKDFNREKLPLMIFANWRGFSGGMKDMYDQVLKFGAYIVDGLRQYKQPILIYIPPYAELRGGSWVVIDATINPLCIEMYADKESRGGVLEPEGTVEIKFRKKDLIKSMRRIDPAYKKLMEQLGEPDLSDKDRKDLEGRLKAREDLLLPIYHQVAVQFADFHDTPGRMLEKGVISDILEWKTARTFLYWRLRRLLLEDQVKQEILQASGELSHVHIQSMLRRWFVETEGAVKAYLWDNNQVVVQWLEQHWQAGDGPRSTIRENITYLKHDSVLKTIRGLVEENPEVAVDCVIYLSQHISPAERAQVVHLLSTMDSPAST

Row | Compound | IC50
1 | CC(=O)NC(C)Cc1ccc(C#Cc2cc3c(cc2C#N)OCO3)cc1 (stereo not shown) [Example 3.7] | 10600 nM
2 | CC(=O)NC(C)Cc1ccc(C#Cc2ccc(N3CCCCC3=O)cc2)cc1 (stereo not shown) [Example 2.6] | 1400 nM
3 | CCOc1ccc(C#Cc2ccc(CC(C)NC(=O)N(C)C)cc2)cc1 (stereo not shown) [Example 7.2] | 190 nM
4 | CCCOc1ccc(C#Cc2ccc(CC(C)NC(C)=O)cc2)c(C(N)=O)c1 (stereo not shown) [Example 2.90] | 5200 nM
5 | CCCc1ccc(C#Cc2ccc(CC(C)NC(C)=O)cc2)cc1 (stereo not shown) [Example 2.20] | 300 nM
6 | CCOc1ccc(C#Cc2ccc(CC(C)NC(=O)c3oc(C)nc3C)cc2)cc1 (stereo not shown) [Example 4.57] | 990 nM
7 | CCCOc1cc(C#Cc2ccc(CC(C)NC(C)=O)cc2)ccn1 (stereo not shown) [Example 2.14] | 130 nM
8 | CCOC(=O)c1cccc(C#Cc2ccc(CC(C)NC(C)=O)cc2)c1 (stereo not shown) [Example 2.2] | 390 nM
9 | COc1ccc(-c2cnc(C#Cc3ccc(CC(C)NC(C)=O)cc3)cn2)cc1 (stereo not shown) [Example 1.13] | 1100 nM
10 | CC(=O)NC(C)Cc1ccc(C#Cc2ccc(OC(F)(F)F)cc2C#N)cc1 (stereo not shown) [Example 2.10] | 7500 nM
11 | CC(=O)NC(C)Cc1ccc(C#Cc2ccc(Oc3cncnc3)nc2)cc1 (stereo not shown) [Example 2.26] | 930 nM
12 | CC(=O)NC(C)Cc1ccc(C#Cc2ccc(Oc3ccccc3)nc2)cc1 (stereo not shown) [Example 1.8] | 200 nM
13 | CC(=O)NC(C)Cc1ccc(C#Cc2cnn(C)c2)cc1 (stereo not shown) [Example 2.107] | 4900 nM
14 | CCOc1ccc(C#Cc2ccc(CC(C)NC(=O)COC)cc2)cc1 (stereo not shown) [Example 4.6] | 970 nM
15 | CC(=O)NC(C)Cc1ccc(C#Cc2ncc(Cl)cn2)cc1 (stereo not shown) [Example 2.99] | 7400 nM
16 | CCCOc1ccc(C#Cc2ccc(C(C)(C)NC(C)=O)cc2)cc1 [Example 2.41] | 25000 nM
17 | CC(=O)NC(C)Cc1ccc(C#Cc2cccc3ncccc23)cc1 (stereo not shown) [Example 2.4] | 3300 nM
18 | CC(CNC(=O)CC#N)c1ccc(C#Cc2cnc(OC3CCC3)nc2)cc1 (stereo not shown) [Example 4.76] | 660 nM
19 | CCOc1ccc(C#Cc2ccc(C(C)NC(=O)C3(C)CC3)cc2)cc1 (stereo not shown) [Example 4.44] | 1500 nM
20 | CCOc1cc(C#Cc2ccc(CC(C)NC(=O)C3CC3)cc2)ccn1 (stereo not shown) [Example 2.60] | 690 nM
21 | CC(=O)NC(C)Cc1ccc(C#Cc2ccc(OC(C)C)cn2)cc1 (stereo not shown) [Example 1.20] | 610 nM
22 | C/C=C/C(=O)NC(C)Cc1ccc(C#Cc2ccc(OCC)cc2)cc1 (stereo not shown) [Example 4.3] | 220 nM
23 | CCCOc1ccc(C#Cc2ccc(CC(C)NC(=O)C3CC3)cc2)cn1 (stereo not shown) [Example 2.70] | 800 nM
24 | CCc1ccc(C#Cc2ccc(CC(C)NC(C)=O)cc2)cc1 (stereo not shown) [Example 1.21] | 400 nM
25 | CCOc1ccc(C#Cc2ccc(C(C)NS(=O)(=O)CC3CC3)cc2)cc1 (stereo not shown) [Example 5.2] | 7200 nM
26 | CCOc1ccc(C#Cc2ccc(C(C)NC(=O)c3cnco3)cc2)cc1 (stereo not shown) [Example 4.45] | 530 nM

More lines, now with the values ahead:

Row | IC50 | Compound
27 | 7200 nM | CCOc1ccc(C#Cc2ccc(CCNC(C)=O)nc2)cc1 [26.1]
28 | 4500 nM | COC(=O)NC(C)Cc1ccc(C#Cc2cnc(NCCF)nc2)cc1 (stereo not shown) [Example 13.42]
29 | 3600 nM | CC(=O)N[C@@H](C)c1ccc(C#Cc2cnc(NCCC(F)(F)F)nc2)cc1 [Example 13.94]
30 | 9400 nM | CC(=O)NC(C)Cc1ccc(C#Cc2ccc(OCCN3CCOCC3)cc2)cc1 (stereo not shown) [Example 9.6]
31 | 12700 nM | CC(=O)NC(C)Cc1ccc(C#Cc2ccnc(NC(C)C)n2)cc1 (stereo not shown) [Example 11.7]
32 | 100 nM | CCOc1ccc(C#Cc2ccc(CCC(C)NC(C)=O)cc2)cc1 (stereo not shown) [Example 14.10]
33 | 110 nM | CC(=O)NC(C)Cc1ccc(C#Cc2cnc(NC3CCC3)nc2)cc1 (stereo not shown) [Example 13.12]
34 | 1200 nM | CC(=O)NC(C)Cc1ccc(C#Cc2cnc(OCCC(C)C)nc2)cc1 (stereo not shown) [Example 12.19]
35 | 360 nM | CCCOc1cc(C#Cc2ccc(CC(C)NC(=O)C3CC3)cc2)ccn1 (stereo not shown) [Example 14.44]
36 | 2300 nM | CCOc1ccc(C#Cc2ccc(CCNC(C)=O)cc2)cn1 [Example 14.36]
37 | 530 nM | COc1ccc(Oc2ncc(C#Cc3ccc(CC(C)NC(C)=O)cc3)cn2)cc1 (stereo not shown) [Example 12.50]
38 | 500 nM | CC(=O)NC(C)Cc1ccc(C#Cc2ccc(C(=O)N3CCCCC3)cc2)cc1 (stereo not shown) [Example 8.1, N-(1-(4-((4-(piperidine-1-carbonyl)phenyl)ethynyl)phenyl)propan-2-yl)acetamide]
39 | 360 nM | CC(=O)NC(C)Cc1ccc(C#Cc2cnc(NCC(F)(F)F)nc2)cc1 (stereo not shown) [Example 13.59]
40 | 1100 nM | CC(=O)NC(C)Cc1ccc(C#Cc2ccnc(OC3CCC3)n2)cc1 (stereo not shown) [Example 12.6]
41 | 1900 nM | CC(=O)NC(C)Cc1ccc(C#Cc2ccnc(NCC3CC3)n2)cc1 (stereo not shown) [Example 11.13]
42 | 510 nM | CC(C)COc1ccc(C#Cc2ccc(CC(C)NC(=O)C3CC3)cc2)cc1 (stereo not shown) [Example 14.17]
43 | 3400 nM | CC(C)Oc1ccc(C#Cc2ccc([C@H](C)NC(=O)C3CC3)cc2)cc1 [Example 14.28]
44 | 150 nM | CCOc1ccc(C#Cc2ccc(CC(CC)NC(C)=O)cc2)cc1 (stereo not shown) [Example 27.3]
45 | 200 nM | CC(=O)NC(C)Cc1ccc(C#Cc2cnc(OC3CCCC3)nc2)cc1 (stereo not shown) [Example 27.1, N-{2-[4-(2-Cyclopentyloxy-pyrimidin-5-ylethynyl)-phenyl]-1-methyl-ethyl}-acetamide]
46 | 70 nM | CC(Cc1ccc(C#Cc2cnc(OC3CCC3)nc2)cc1)NC(=O)N(C)C (stereo not shown) [Example 12.29]
47 | 5200 nM | CC(Cc1ccc(C#Cc2cnc(NCCF)nc2)cc1)NC(=O)C1CC1 (stereo not shown) [Example 13.53]
48 | 170 nM | CC(Cc1ccc(C#Cc2cnc(OC3CCC3)nc2)cc1)NC(=O)c1cncs1 (stereo not shown) [34.1]
49 | 510 nM | CC(=O)N[C@@H](C)c1ccc(C#Cc2ccc(OC(C)C)cc2)cc1 [Example 14.20]
50 | 1600 nM | CC(=O)NC(C)Cc1ccc(C#Cc2ccc(C(=O)NC3CCCC3)cc2)cc1 (stereo not shown) [Example 8.4]

Row | IC50 | Compound
51 | 190 nM | CC(=O)NC(C)Cc1ccc(C#Cc2cnc(N(C)C3CCCC3)nc2)cc1 (stereo not shown) [Example 13.16]
52 | 30000 nM | CC(=O)NC(C)Cc1ccc(C#Cc2ccnc(N(C)Cc3ccncc3)n2)cc1 (stereo not shown) [Example 11.2]
53 | 4000 nM | CC(=O)NC(C)Cc1ccc(C#Cc2ccnc(N(C)C3CCC(O)CC3)n2)cc1 (stereo not shown) [Example 11.9]
54 | 5600 nM | CC(=O)NC(C)Cc1ccc(C#Cc2ccnc(N3CCC3)n2)cc1 (stereo not shown) [Example 11.12]
55 | 2200 nM | CCCOc1nccc(C#Cc2ccc(CC(C)NC(C)=O)cc2)n1 (stereo not shown) [Example 12.8]
56 | 1400 nM | CC(=O)NC(C)Cc1ccc(C#Cc2ccc(C(=O)N3CCCC3)cc2)cc1 (stereo not shown) [Example 8.45]
57 | 630 nM | COc1ccc(Oc2ncc(C#Cc3ccc(CC(C)NC(C)=O)cc3)cn2)cn1 (stereo not shown) [Example 12.40]
58 | 220 nM | CC(=O)NC(C)Cc1ccc(C#Cc2cnc(N3CCCC3)nc2)cc1 (stereo not shown) [Example 13.77]
59 | 220 nM | CCC(CC)Oc1ccc(C#Cc2ccc(CC(C)NC(C)=O)cc2)cc1 (stereo not shown) [Example 9.1, N-(1-(4-((4-(pentan-3yloxy)phenyl)ethynyl)phenyl)propan-2-yl)acetamide]
60 | 110 nM | CC(=O)NC(C)Cc1ccc(C#Cc2cnc(NCc3ccc(C)cc3)nc2)cc1 (stereo not shown) [Example 13.79]
61 | 80 nM | CCCOc1ccc(C#Cc2ccc(CC(C)NC(=O)C3CC3)cc2)cc1 (stereo not shown) [Example 14.40]
62 | 1500 nM | CC(=O)NC(C)Cc1ccc(C#Cc2ccc(C(=O)NCC3CC3)cc2)cc1 (stereo not shown) [Example 8.6]
63 | 200 nM | CCCOc1cc(C#Cc2ccc([C@H](C)NC(C)=O)cc2)ccn1 [Example 14.24]
64 | 230 nM | COCCCOc1ccc(C#Cc2ccc(CC(C)NC(C)=O)cc2)cc1 (stereo not shown) [Example 9.30]
65 | 2800 nM | CC(=O)NC(C)Cc1ccc(C#Cc2cccc(C(=O)NCC(C)C)c2)cc1 (stereo not shown) [Example 8.30]
66 | 170 nM | CC(=O)NC(C)Cc1ccc(C#Cc2cnc(NCCC(F)(F)F)nc2)cc1 (stereo not shown) [Example 13.75]
67 | 380 nM | CC(=O)NC(C)Cc1ccc(C#Cc2ccnc(N3CCC4(CCCC4)C3)n2)cc1 (stereo not shown) [Example 11.28]
68 | 3200 nM | CC(=O)NC(C)Cc1ccc(C#Cc2cnc(Oc3ccc4cn[nH]c4c3)nc2)cc1 (stereo not shown) [Example 12.39]
69 | 2000 nM | CC(=O)NC(C)Cc1ccc(C#Cc2cccc(C(=O)N(C)C3CCCC3)c2)cc1 (stereo not shown) [Example 8.33]
70 | 13900 nM | COC1CN(c2nccc(C#Cc3ccc(CC(C)NC(C)=O)cc3)n2)C1 (stereo not shown) [Example 11.34]
71 | 1000 nM | COc1ccccc1Oc1ncc(C#Cc2ccc(CC(C)NC(C)=O)cc2)cn1 (stereo not shown) [Example 12.46]
72 | 180 nM | CC(=O)NC(C)Cc1ccc(C#Cc2cnc(OCC3CC3(F)F)nc2)cc1 (stereo not shown) [Example 12.45]
73 | 3900 nM | CC(=O)NC(C)Cc1ccc(C#Cc2ccc(C(=O)N(C)C)cc2)cc1 (stereo not shown) [Example 8.43]
